Results on eleven molecules are retold here after PubChem BioAssay (NCI).

Several values for one entry are separate records, joined by “and”; a condition that tells them apart may be missing. Equal entries are not always repeated.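 Tested at 5 concentrations; 48 h exposure; 96-well plates; endpoints linearly interpolated, else capped at highest concentration. At the GI50, growth is halved. TGI denotes the concentration required for complete inhibition of growth.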

Test systems include A498 renal; HCC-2998 colon; HOP-62 NSCLC; HT29 colon; MDA-MB-435; SF-268 CNS; SN12C renal; SNB-19 CNS; T-47D breast; UO-31 renal.
Common to all, as to assay: inhibition of tumour cell growth, NCI panel, 48 h

Consider `O=[N+]([O-])c1ccc(N(CCO)CCO)c2c1no[n+]2[O-]`, for which the GI50 is 1.58 µM in the assay on A498 renal; 1.26 µM in the assay on HCC-2998 colon; 1.39 µM in the assay with HOP-62 NSCLC; 1.84 µM in the assay with HT29 colon; 1.51 µM in the assay with MDA-MB-435; 1.24 µM in the assay on SF-268 CNS. The GI50 with SN12C renal is 1.61 µM; with SNB-19 CNS, 1.76 µM; with T-47D breast, 1.36 µM; in the assay on UO-31 renal, 2.01 µM. Moreover, the TGI in the assay on A498 renal turned out to be 3.68 µM; in the assay on HCC-2998 colon, 3.46 µM; in the assay with HOP-62 NSCLC it was 4.16 µM; in the assay with HT29 colon, 10.7 µM; in the assay with MDA-MB-435 it was 4.87 µM; in the assay with SF-268 CNS, 5.02 µM. The TGI came out at 9.28 µM in the assay with SN12C renal, 5.9 µM in the assay with SNB-19 CNS, 5.46 µM with T-47D breast and 8.65 µM in the assay with UO-31 renal.

Consider `Cc1ccnc2c1NC(=O)c1cccnc1N2C1CC1`, for which the GI50 in the assay on A498 renal, in the assay with HCC-2998 colon, in the assay with HOP-62 NSCLC, with HT29 colon, in the assay with MDA-MB-435 and in the assay with SF-268 CNS was over 100 µM each time. The GI50 in the assay with SN12C renal is over 100 µM; with SNB-19 CNS, over 100 µM; in the assay on T-47D breast, over 100 µM; in the assay with UO-31 renal, 48.7 µM. The TGI in the assay with A498 renal, with HCC-2998 colon, in the assay with HOP-62 NSCLC, in the assay on HT29 colon, in the assay on MDA-MB-435 and in the assay on SF-268 CNS was over 100 µM throughout. The TGI with SN12C renal, in the assay on SNB-19 CNS, in the assay on T-47D breast and in the assay with UO-31 renal was over 100 µM throughout.

As for `C#C[C@]1(O)CC[C@H]2[C@@H]3CC=C4c5nc(Nc6ccc(OC)cc6OC)sc5CC[C@]4(C)[C@H]3CC[C@@]21C`, the GI50 with A498 renal was 0.152 µM; in the assay with HCC-2998 colon, 2.17 µM; with HOP-62 NSCLC it was 1.93 µM; in the assay on HT29 colon, 1.29 µM; in the assay with MDA-MB-435 it was 1.76 µM; in the assay on SF-268 CNS, 1.75 µM. The GI50 is 3.36 µM with SN12C renal, 1.75 µM in the assay with SNB-19 CNS, 2.67 µM in the assay on T-47D breast and 1.36 µM in the assay with UO-31 renal. In addition, the TGI was found to be 1.23 µM in the assay with A498 renal; 5.59 µM with HCC-2998 colon; 7.37 µM in the assay on HOP-62 NSCLC; 6.4 µM in the assay on HT29 colon; 4.39 µM in the assay on MDA-MB-435; 6.65 µM with SF-268 CNS. Moreover, the TGI with SN12C renal amounted to 19.2 µM; in the assay on SNB-19 CNS, 10.7 µM; with T-47D breast, 15.7 µM; with UO-31 renal, 5.16 µM.

On to `CCOC(=O)C(=Cc1ccc(Br)cc1)C(=O)OCC`, for which the GI50 in the assay with A498 renal is 2.18 µM; in the assay with HCC-2998 colon it was 1.91 µM; in the assay on HOP-62 NSCLC it was 2.78 µM; in the assay on HT29 colon, 2.25 µM; with MDA-MB-435, 2.16 µM; in the assay on SF-268 CNS it was 1.91 µM. The GI50 in the assay with SN12C renal was 2.03 µM; in the assay on SNB-19 CNS, 2.47 µM; in the assay on T-47D breast, 2.12 µM; in the assay on UO-31 renal, 1.57 µM. Besides, the TGI with A498 renal was 5.14 µM; in the assay with HCC-2998 colon, 3.48 µM; with HOP-62 NSCLC, 5.47 µM; with HT29 colon, 5.86 µM; with MDA-MB-435, 6.91 µM; in the assay with SF-268 CNS, 3.95 µM. Further, the TGI with SN12C renal came to 4.21 µM; in the assay with SNB-19 CNS it was 7.55 µM; in the assay with T-47D breast, 6 µM; in the assay with UO-31 renal it was 3.34 µM.

Consider `NC(N)=NC(N)=NCCc1ccccc1`, for which the TGI in the assay on A498 renal, with HCC-2998 colon, in the assay on HOP-62 NSCLC, in the assay with HT29 colon, in the assay on MDA-MB-435 and in the assay with SF-268 CNS was over 100 µM each time. Moreover, the TGI in the assay on SN12C renal, in the assay on SNB-19 CNS, in the assay with T-47D breast and in the assay on UO-31 renal was over 100 µM throughout. Besides, the GI50 in the assay with HCC-2998 colon is over 100 µM; in the assay on HOP-62 NSCLC, 37.4 µM and > 100 µM; with HT29 colon it was over 100 µM; in the assay with MDA-MB-435 it was over 100 µM; in the assay with SF-268 CNS it was over 100 µM; in the assay on SN12C renal it was over 100 µM. The GI50 is over 100 µM in the assay on SNB-19 CNS; 84.8 µM and > 100 µM in the assay with T-47D breast; 98.9 µM and 38.5 µM with UO-31 renal.

Turning to `c1ccc(-c2cc(-c3cc(-c4ccccn4)[nH]n3)n[nH]2)nc1`, the TGI is over 100 µM with A498 renal; 83.6 µM in the assay on HCC-2998 colon; over 100 µM in the assay on HOP-62 NSCLC; over 100 µM in the assay on HT29 colon; over 100 µM with MDA-MB-435; over 100 µM in the assay with SF-268 CNS. The TGI in the assay with SN12C renal was over 100 µM; with SNB-19 CNS, over 100 µM; in the assay with T-47D breast it was over 100 µM; in the assay with UO-31 renal, 73.2 µM.

`C=CC(=O)Nc1cc2c(Nc3ccc(OCc4ccccn4)c(Cl)c3)ncnc2cc1OCCN1CCOCC1`: the GI50 was 1.48 µM in the assay with A498 renal; 2.2 µM with HCC-2998 colon; 3.2 µM in the assay with HOP-62 NSCLC; 4.04 µM in the assay with HT29 colon; 5.94 µM in the assay with MDA-MB-435; 2.87 µM in the assay with SF-268 CNS. Besides, the GI50 with SN12C renal was 1.49 µM; with SNB-19 CNS, 3.65 µM; with T-47D breast, under 0.0181 µM; with UO-31 renal, 0.646 µM. Moreover, the TGI was 7.23 µM in the assay on A498 renal; 11.1 µM with HCC-2998 colon; over 100 µM with HOP-62 NSCLC; over 100 µM in the assay on HT29 colon; over 86.5 µM in the assay with MDA-MB-435; over 65.9 µM with SF-268 CNS. For the same molecule, the TGI with SN12C renal, in the assay with SNB-19 CNS, in the assay with T-47D breast and in the assay on UO-31 renal was over 100 µM throughout.

On to `CC/C(=C(\c1ccc(O)cc1)c1ccc(OCCNC)cc1)c1ccccc1`, for which the GI50 is 2.33 µM and 1.84 µM with A498 renal; 1.8 µM and 1.78 µM and 1.88 µM in the assay with HCC-2998 colon; 1.88 µM and 1.83 µM and 1.71 µM with HOP-62 NSCLC; 1.71 µM and 1.55 µM in the assay with HT29 colon; 1.51 µM and 1.57 µM and 1.58 µM in the assay on MDA-MB-435; 2.25 µM and 1.74 µM and 2.06 µM in the assay with SF-268 CNS. Also, the GI50 in the assay with SN12C renal was 1.98 µM and 2.86 µM and 3.02 µM; with SNB-19 CNS, 3.61 µM and 2.67 µM and 2.63 µM; in the assay with T-47D breast, 1.3 µM and 1.21 µM and 1.25 µM; in the assay on UO-31 renal it was 1.54 µM and 1.32 µM and 1.67 µM. Besides, the TGI in the assay on A498 renal was 10.2 µM and 4.12 µM and 8.67 µM; in the assay on HCC-2998 colon, 3.28 µM and 3.23 µM and 3.62 µM; in the assay with HOP-62 NSCLC it was 3.35 µM and 3.32 µM and 3.42 µM; in the assay with HT29 colon, 3.39 µM and 2.92 µM and 3.46 µM; in the assay with MDA-MB-435, 3.04 µM and 3.07 µM and 3.02 µM; with SF-268 CNS it was 5.24 µM and 3.76 µM and 4.74 µM. For the same molecule, the TGI was 8.84 µM and 9.58 µM and 10.4 µM in the assay with SN12C renal; 10.9 µM and 8.03 µM and 7.01 µM in the assay with SNB-19 CNS; 3.83 µM and 3.43 µM and 4.01 µM in the assay with T-47D breast; 4.41 µM and 3 µM and 3.57 µM with UO-31 renal.

For `C[C@]12CC[C@H]3[C@@H](C[C@@H]4SC(Nc5cccc(F)c5)=N[C@@]45CC(=O)CC[C@]35C)[C@@H]1CCC2=O`, the GI50 was 2.16 µM in the assay with A498 renal; 3.55 µM with HCC-2998 colon; 2.07 µM in the assay on HOP-62 NSCLC; 1.49 µM in the assay on HT29 colon; 2.74 µM in the assay on MDA-MB-435; 3.09 µM in the assay with SF-268 CNS. Besides, the GI50 with SN12C renal was 2.36 µM; in the assay with SNB-19 CNS, 2.33 µM; with T-47D breast, 2.22 µM; in the assay with UO-31 renal, 1.67 µM. Besides, the TGI worked out at 6.77 µM with A498 renal; 14.6 µM in the assay with HCC-2998 colon; 5.34 µM in the assay on HOP-62 NSCLC; 3.51 µM with HT29 colon; 13.1 µM in the assay with MDA-MB-435; 11.1 µM with SF-268 CNS. In addition, the TGI came to 6.02 µM with SN12C renal, 5.69 µM with SNB-19 CNS, 6.95 µM in the assay with T-47D breast and 3.59 µM in the assay with UO-31 renal.

Turning to `Nc1ccc(-c2ccc(-c3nc4ccccc4[nH]3)cc2)cc1`, the GI50 is 33.6 µM in the assay on A498 renal; 0.105 µM in the assay with HCC-2998 colon; 3.83 µM in the assay on HOP-62 NSCLC; 0.606 µM in the assay on HT29 colon; under 0.0192 µM in the assay on MDA-MB-435; 2.76 µM with SF-268 CNS. The GI50 is 19.6 µM in the assay on SN12C renal, 18.4 µM in the assay on SNB-19 CNS, 3.89 µM with T-47D breast and 10.5 µM with UO-31 renal. For the same molecule, the TGI in the assay with A498 renal was over 100 µM; with HCC-2998 colon, 0.438 µM; with HOP-62 NSCLC, 56.6 µM; in the assay with HT29 colon, 21.6 µM; with MDA-MB-435, over 100 µM; in the assay with SF-268 CNS it was over 100 µM. Further, the TGI with SN12C renal, in the assay on SNB-19 CNS, in the assay with T-47D breast and in the assay on UO-31 renal was over 100 µM throughout.

As to `O=C1c2cccc3c(N4CCN(c5ccc6c7c(cccc57)C(=O)N(CCN5CCNCC5)C6=O)CC4)ccc(c23)C(=O)N1CCN1CCNCC1`, the GI50 in the assay with A498 renal was 17.3 µM; in the assay with HCC-2998 colon, 5.63 µM; in the assay on HOP-62 NSCLC it was 7.96 µM; in the assay with HT29 colon, 3.91 µM; with MDA-MB-435, 13.2 µM; in the assay on SF-268 CNS, 16.8 µM. For the same molecule, the GI50 was 7.46 µM with SN12C renal, 16.1 µM in the assay on SNB-19 CNS, over 100 µM with T-47D breast and 12.8 µM with UO-31 renal. In addition, the TGI is 36.4 µM in the assay with A498 renal; 20.9 µM in the assay on HCC-2998 colon; 27.7 µM in the assay on HOP-62 NSCLC; over 100 µM in the assay with HT29 colon; 34.2 µM with MDA-MB-435; 70.7 µM with SF-268 CNS. Besides, the TGI with SN12C renal was 23.2 µM; in the assay with SNB-19 CNS, 61.6 µM; with T-47D breast, over 100 µM; in the assay on UO-31 renal it was 33 µM.
